Counter-ions that a name gives are not always drawn. Marks after values point to notes of the source that are not given here.
Assays:
[1] = Fluorescence quenching by triethylamine (Stern-Volmer); format: physicochemical; details: Et3N as a quencher; determined from Ksv and singlet lifetime
Method: The fluorescence quenching by triethylamine (Et3N) was tested in order to gauge relative efficiencies of these compounds as DNA photo-oxidizers. […] The measured singlet lifetimes allowed us to determine the quenching rate constant, kq, which in this system, should be very close in magnitude to the rate of electron transfer, kET. The 2-3-fold increase in the rate of electron transfer from Et3N to excited singlet state of the meta- and ortho-isomers in comparison to the para-isomer is consistent with the well-known photochemical ortho, meta effect of an acceptor substituent. See Zimmerman, H. E., The Meta Effect in Organic Photochemistry: Mechanistic and Exploratory Organic Photochemistry, J. Am. Chem. Soc., 1995, 117, 8988-8991. doi: 10.1021/ja00140a014 and Zimmerman, H. E.; Alabugin, I. V. J. Am. Chem. Soc. 2001, […]. doi: 10.1021/ja002402c.

DNA = details: literature value; cited from earlier work
pBR322 plasmid DNA = test: Plasmid relaxation assay for DNA photocleavage; format: biochemical; details: 30 μM/base pair pBR322, pH 6, 7 and 8; for DNA cleavage efficiency: 15 μM lysine conjugate
Method: The present invention is additionally directed to methods of forming a double strand cleavage in DNA, wherein compounds having the above Structures are contacted with and bind to double stranded DNA. The pH-dependency of DNA-cleavage of the two bis-lysine conjugates was investigated. The top of FIGS. 6A and 6B depicts the results of the plasmid relaxation assay for DNA photocleavage with 15 μM of acetylenic conjugates (3) (FIG. 6A) and (5) (FIG. 6B) and […] (b.p.) of pBR322 plasmid DNA at pH range of 6-9 after 10 min. of UV (>310 nm) irradiation. The bottom of each of FIGS. 6A and 6B are graphs of quantified cleavage data as a function of pH for conjugates (3) (FIG. 6A) and (5) (FIG. 6B). The reported values represent the average of three experiments. Code: Form I, diamond; Form II, square; Form III, triangle.
The plasmid relaxation assay experiments were carried out on 15 μM of lysine conjugate with 30 μM/base pair of pBR322 plasmid DNA at pH 6, 7 and 8.
Plasmid DNA Photocleavage. pBR322 plasmid DNA (4,361 bp; from BioLabs Inc., 1 μg/μL solution in 10 mM Tris-HCl (pH 8.0), and 1mM EDTA buffer) was diluted to a concentration of 0.01 μg/μL. The solution containing cleavage agent, DNA (30 μM/bp) in 20 mM sodium phosphate buffer was incubated for 1 hour at 30° C. Samples were placed on ice at a distance of 20 cm from 200 W Hg—Xe lamp (Spectra-Physics, Laser & Photonics Oriel Instruments with long pass filter with 300 nm cut-on wavelength).
Electrophoretic Analysis. The gel electrophoresis was carried out in lx TBE buffer at 80 V using Miligel FisherBiotech Horizontal Electrophoresis System. All gels were run on 1% agarose slab gels. Before loading, the DNA samples were mixed with 0.33 volume of tracking dye containing bromophenol blue (0.25%) and glycerol (30%) in water. After staining in ethidium bromide solution (2 μg/mL) for 1 hour, the gel was washed with water and pictures were taken. The relative quantities of the supercoiled, nicked, and linear DNA were calculated by integrating the “area” of each spot by the image analyzer software Total/Lab (Nonlinear Dynamics Ltd., UK). […]

[2] = from Carey, Organic Chemistry, 6th ed.; cited from earlier work
[3] = tested on: A375 cells (Human Melanoma); test: Cell proliferation (MTT) assay; format: cell-based; details: A375, after 10 min UV irradiation at 360 nm
Method: The ability of compounds (15), (16), and (17) to inhibit cell proliferation in human melanoma cell lines was tested in the dark and under photoactivation. See FIGS. 9A and 9B, which depict cell proliferation assays in A375 cells (Human Melanoma) exposed to bis-lysine conjugates (15) (square), (16) (up-pointing triangle) and (17) (down-pointing triangle) in dark (FIG. 9A) and after 10 min. of UV (360 nm) irradiation (FIG. 9B).
MTT Assay. A375 cells were seeded at 2000 cells per well in a 96-well plate. Seven 2-fold serial dilutions of the compounds were added to the cells in triplicate. Concentrations were from 1 to 0.016 μM of compounds. After 4 hs of incubation with the compounds, cells were UV-irradiated for ten minutes at 365 nm (UV transluminator, Spectronomics Corp. model TR-365R). After 72hs of incubation, MTT (Sigma® cat#M2128) was added to cells to a final concentration of 1.25 mg/mL and incubated for 60 minutes. Cells were centrifuged at 900 g for 5 minutes at room temperature. Media was replaced with DMSO and absorbance will be measured in a plate reader at 570 nm.

CC(=O)Nc1ccccc1C#Cc1c(F)c(F)nc(F)c1F [(5) (ortho), N-(2-((Perfluoropyridin-4-yl)ethynyl)phenyl) acetamide]
kq (quenching rate constant) [1]: 1.43e+10 M⁻¹ s⁻¹

CC(=O)Nc1cccc(C#Cc2c(F)c(F)nc(F)c2F)c1 [(4) (meta), N-(3-((Perfluoropyridin-4-yl)ethynyl)phenyl)acetamide]
kq (quenching rate constant) [1]: 1.36e+10 M⁻¹ s⁻¹

calicheamicin
double strand breaks formed (DNA): 25-33%

NCCCC[C@H](N)C(=O)Nc1cccc(C#Cc2c(F)c(F)nc(F)c2F)c1 [(16), (S)-2,6-Diamino-N-(3-((perfluoropyridin-4-yl)ethynyl)phenyl)hexanamide Dihydrochloride]
DNA cleavage efficiency (pBR322 plasmid DNA): less DNA cleavage than conjugate (15)

NCCCC[C@H](N)C(=O)O [Lysine]
pKa1 [2]: 8.95^b | pKa2 [2]: 10.53^b

CC(=O)Nc1ccc(C#Cc2c(F)c(F)nc(F)c2F)cc1 [(3) (para), N-(4-((Perfluoropyridin-4-yl)ethynyl)phenyl)acetamide]
kq (quenching rate constant) [1]: 5.64e+09 M⁻¹ s⁻¹

NCCCC[C@H](N)C(=O)Nc1ccccc1C#Cc1c(F)c(F)nc(F)c1F [(17), (S)-2,6-Diamino-N-(2-((perfluoropyridin-4-yl)ethynyl)phenyl)hexanamide Dihydrochloride]
phototoxicity [3]: some phototoxicity | DNA cleavage efficiency (pBR322 plasmid DNA): least efficient DNA cleavage | double-strand breaks (pBR322 plasmid DNA; 15 μM): has not produced any double-strand breaks
